Results published in US8362000B2, “Azetidinyl diamides as monoacylglycerol lipase inhibitors” (Janssen Pharmaceutica NV, priority 2009, dated 2013).

Molecular target: T1, mutant MGL (Homo sapiens, UniProt Q99685, L169S/L176S)
T1 sequence (Q99685 1-303 L169S/L176S): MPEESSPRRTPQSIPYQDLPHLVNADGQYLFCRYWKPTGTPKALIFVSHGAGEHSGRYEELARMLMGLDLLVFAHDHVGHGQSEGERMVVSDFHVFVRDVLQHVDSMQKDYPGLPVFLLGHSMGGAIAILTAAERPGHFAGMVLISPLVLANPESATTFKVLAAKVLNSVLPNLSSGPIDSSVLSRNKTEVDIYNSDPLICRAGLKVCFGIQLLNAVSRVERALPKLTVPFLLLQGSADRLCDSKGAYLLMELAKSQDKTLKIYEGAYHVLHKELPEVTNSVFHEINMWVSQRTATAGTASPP
Assay: MGL ThermoFluor assay - mutant
Format: binding
Settings: ThermoFluor concentration-response, read-out: MGL mutant ThermoFluor Kd

SMILES | Kd [µM]
CC(C)(C)OC(=O)N1CCC(c2ccc(C(=O)N3CC(N4CCN(C(=O)c5ccccc5)CC4)C3)cc2)CC1 [Cpd 109, tert-Butyl 4-[4-({3-[4-(phenylcarbonyl)piperazin-1-yl]azetidin-1-yl}carbonyl)phenyl]piperidine-1-carboxylate] | 0.0333
CC1CN(C2CN(C(=O)c3cccc(Oc4ccccc4)c3)C2)CCN1C(=O)c1nccs1 (stereo not drawn) [Cpd 113] | 1.11
O=C(c1ccc(-c2ccccc2)cc1)N1CC(N2CCN(C(=O)c3nccs3)CC2c2ccccc2)C1 (stereo not drawn) [Cpd 114] | 0.00333
CC1CN(C2CN(C(=O)c3cccc(-c4ccccc4)c3)C2)CCN1C(=O)c1nccs1 (stereo not drawn) [Cpd 116] | 2
O=C(c1cccc(-c2cccc(Br)n2)c1)N1CC(N2CCN(C(=O)c3nccs3)CC2)C1 [Cpd 151, 1-(1-{[3-(6-Bromopyridin-2-yl)phenyl]carbonyl}azetidin-3-yl)-4-(1,3-thiazol-2-ylcarbonyl)piperazine] | 0.025
N#Cc1ccc(-c2ccc(C(=O)N3CC(N4CCN(C(=O)c5cscn5)CC4)C3)cc2)cc1 [Cpd 171] | 0.708

Next, values leading:

Kd [µM] | SMILES
6.25 | O=C(/C=C/c1ccccc1Cl)N1CC(N2CCN(C(=O)c3ccccc3)CC2)C1 [Cpd 103, 1-{1-[(2E)-3-(2-Chlorophenyl)prop-2-enoyl]azetidin-3-yl}-4-(phenylcarbonyl)piperazine]
5 | O=C(/C=C/c1ccccc1Br)N1CC(N2CCN(C(=O)c3ccccc3)CC2)C1 [Cpd 104, 1-{1-[(2E)-3-(2-Bromophenyl)prop-2-enoyl]azetidin-3-yl}-4-(phenylcarbonyl)piperazine]
5 | O=C(/C=C/c1ccc2ccccc2c1)N1CC(N2CCN(C(=O)c3ccccc3)CC2)C1 [Cpd 105, 1-{1-[(2E)-3-Naphthalen-2-ylprop-2-enoyl]azetidin-3-yl}-4-(phenylcarbonyl)piperazine]
0.154 | O=C(c1ccccc1)N1CCN(C2CN(C(=O)C3CCC(c4ccccc4)CC3)C2)CC1 (stereo not drawn) [Cpd 106, 1-(Phenylcarbonyl)-4-{1-[(4-phenylcyclohexyl)carbonyl]azetidin-3-yl}piperazine]
0.556 | Cc1c(-c2ccccc2)oc2c(C(=O)N3CC(N4CCN(C(=O)c5ccccc5)CC4)C3)cccc2c1=O [Cpd 107, 3-Methyl-2-phenyl-8-({3-[4-(phenylcarbonyl)piperazin-1-yl]azetidin-1-yl}carbonyl)-4H-chromen-4-one]
1.25 | O=C(c1ccccc1)C1CCC(C(=O)N2CC(N3CCN(C(=O)c4ccccc4)CC3)C2)CC1 (stereo not drawn) [Cpd 108, Phenyl[4-({3-[4-(phenylcarbonyl)piperazin-1-yl]azetidin-1-yl}carbonyl)cyclohexyl]methanone]
5 | O=C(c1ccccc1)N1CCN(C2CN(C(=O)c3cccnc3Oc3ccccc3)C2)CC1 [Cpd 110, 1-{1-[(2-Phenoxypyridin-3-yl)carbonyl]azetidin-3-yl}-4-(phenylcarbonyl)piperazine]
10 | CC(C)(C)OC(=O)N1CCC(c2ccccc2C(=O)N2CC(N3CCN(C(=O)c4ccccc4)CC3)C2)C1 (stereo not drawn) [Cpd 111, tert-Butyl 3-[2-({3-[4-(phenylcarbonyl)piperazin-1-yl]azetidin-1-yl}carbonyl)phenyl]pyrrolidine-1-carboxylate]
0.00067 | O=C(c1ccc(-c2cccc(Cl)c2)cc1)N1CC(N2CCN(C(=O)c3nccs3)CC2)C1 [Cpd 162, 1-{1-[(3′-Chlorobiphenyl-4-yl)carbonyl]azetidin-3-yl}-4-(1,3-thiazol-2-ylcarbonyl)piperazine]
30.3 | O=C(c1cncc(-c2ccccc2)c1)N1CC(N2CCN(C(=O)c3cscn3)CC2)C1 [Cpd 169]

Same assay, conditions: ThermoFluor thermal stability binding assay, read-out: MGL mutant ThermoFluor Kd

SMILES | Kd [µM]
N#CC=Cc1cccc(-c2ccc(C(=O)N3CC(N4CCN(C(=O)c5nccs5)CC4)C3)cc2)c1 [Cpd 223, 3-[4′-({3-[4-(1,3-Thiazol-2-ylcarbonyl)piperazin-1-yl]azetidin-1-yl}carbonyl)biphenyl-3-yl]prop-2-enenitrile] | 0.0067
CC(=O)Nc1cccc(-c2ccc(C(=O)N3CC(N4CCN(C(=O)c5nccs5)CC4)C3)cc2)c1 [Cpd 234, N-[4′-({3-[4-(1,3-Thiazol-2-ylcarbonyl)piperazin-1-yl]azetidin-1-yl}carbonyl)biphenyl-3-yl]acetamide] | 0.0476
CC(=O)Nc1cccc(-c2ccc(C(=O)N3CC(N4CCN(C(=O)c5cscn5)CC4)C3)cc2)c1 [Cpd 235, N-[4′-({3-[4-(1,3-Thiazol-4-ylcarbonyl)piperazin-1-yl]azetidin-1-yl}carbonyl)biphenyl-3-yl]acetamide] | 0.588
CS(=O)(=O)c1cccc(-c2ccc(C(=O)N3CC(N4CCN(C(=O)c5cscn5)CC4)C3)cc2)c1 [Cpd 236, 1-(1-{[3′-(Methylsulfonyl)biphenyl-4-yl]carbonyl}azetidin-3-yl)-4-(1,3-thiazol-4-ylcarbonyl)piperazine] | 0.2
Cc1cc(C(=O)N2CC(N3CCN(C(=O)c4nccs4)CC3)C2)ccc1-c1cccc(C(F)(F)F)c1 [Cpd 241, 1-(1-{[2-Methyl-3′-(trifluoromethyl)biphenyl-4-yl]carbonyl}azetidin-3-yl)-4-(1,3-thiazol-2-ylcarbonyl)piperazine] | 0.0005
Cc1cc(C(=O)N2CC(N3CCN(C(=O)c4cscn4)CC3)C2)ccc1-c1cccc(C(F)(F)F)c1 [Cpd 242, 1-(1-{[2-Methyl-3′-(trifluoromethyl)biphenyl-4-yl]carbonyl}azetidin-3-yl)-4-(1,3-thiazol-4-ylcarbonyl)piperazine] | 0.004
O=C(c1nccs1)N1CCN(C2CN(C(=O)c3ccc(-c4cccc(C(F)(F)F)c4)cc3F)C2)CC1 [Cpd 244, 1-(1-{[3-Fluoro-3′-(trifluoromethyl)biphenyl-4-yl]carbonyl}azetidin-3-yl)-4-(1,3-thiazol-2-ylcarbonyl)piperazine] | 0.002

The remaining lines, values ahead:

Kd [µM] | SMILES
0.25 | O=C(c1ccccc1)N1CCN(C2CN(C(=O)c3ccc4c(ccn4S(=O)(=O)c4ccccc4)c3)C2)CC1 [Cpd 130]
0.0941 | O=C(c1ccccc1)N1CCN(C2CN(C(=O)c3ccc4nc(-c5cccc(C(F)(F)F)c5)oc4c3)C2)CC1 [Cpd 131, 6-({3-[4-(Phenylcarbonyl)piperazin-1-yl]azetidin-1-yl}carbonyl)-2-[3-(trifluoromethyl)phenyl]-1,3-benzoxazole]
0.25 | O=C(c1ccccc1)N1CCN(C2CN(C(=O)c3ccc4oc(-c5ccccc5)nc4c3)C2)CC1 [Cpd 132]
0.143 | CS(=O)(=O)c1cccc(-c2ccc(C(=O)N3CC(N4CCN(C(=O)c5ccccc5)CC4)C3)cc2)c1 [Cpd 231, 1-(1-{[3′-(Methylsulfonyl)biphenyl-4-yl]carbonyl}azetidin-3-yl)-4-(phenylcarbonyl)piperazine]
1.32 | CC(=O)Nc1cccc(-c2ccc(C(=O)N3CC(N4CCN(C(=O)c5ccccc5)CC4)C3)cc2)c1 [Cpd 233, N-[4′-({3-[4-(Phenylcarbonyl)piperazin-1-yl]azetidin-1-yl}carbonyl)biphenyl-3-yl]acetamide]
0.0333 | Cc1cc(-c2cccc(C(F)(F)F)c2)ccc1C(=O)N1CC(N2CCN(C(=O)c3ccccc3)CC2)C1 [Cpd 238, 1-(1-{[3-Methyl-3′-(trifluoromethyl)biphenyl-4-yl]carbonyl}azetidin-3-yl)-4-(phenylcarbonyl)piperazine]
0.0167 | O=C(c1ccccc1)N1CCN(C2CN(C(=O)c3ccc(-c4cccc(C(F)(F)F)c4)cc3F)C2)CC1 [Cpd 246, 1-(1-{[3-Fluoro-3′-(trifluoromethyl)biphenyl-4-yl]carbonyl}azetidin-3-yl)-4-(phenylcarbonyl)piperazine]
